For one data set, the system named is IL-1β. The data set is described as follows: PBMC assay: IL-1β release after LPS stimulation (NLRP3 inflammasome activity). The following applies: human PBMCs, 30 min pre-incubation, 100 ng/ml LPS for 6 hrs, supernatant, MSD technology. The format is cell-based. On the procedure:
(§1) Peripheral venous blood was collected from healthy individuals and human peripheral blood mononuclear cells (PBMCs) were isolated from blood by Ficoll-Histopaque (Sigma-Aldrich, A0561) density gradient centrifugation. After isolation, PBMCs were stored in liquid nitrogen for later use. Upon thawing, PBMC cell viability was determined in growth medium (RPMI media supplemented with 10% fetal bovine serum, 1% Pen-Strep and 1% L-glutamine). Compounds were spotted in a 1:3 serial dilution in DMSO and diluted to the final concentration in 30 μl medium in 96 well plates (Falcon, 353072). PBMCs were added at a density of 7.5×10^4 cells per well and incubated for 30 min in a 5% CO2 incubator at 37° C. LPS stimulation was performed by addition of 100 ng/ml LPS (final concentration, Invivogen, tirl-smips) for 6 hrs followed by collection of cellular supernatant and the analysis of IL-1β (μM) and TNF cytokines levels (μM) via MSD technology according to manufacturers' guidelines (MSD, K151A0H).

The test system of a further data set is TNF. The data set is described as follows: PBMC assay: TNF cytokine level after LPS stimulation. The format is cell-based. The following applies: human PBMCs, 30 min pre-incubation, 100 ng/ml LPS for 6 hrs, supernatant, MSD technology. On the procedure: as §1
The IC50 values (for IL-1β) and EC50 values (TNF) were obtained on compounds of the invention/examples, and are depicted in the following table: […]

The structures appear in SMILES notation. Bounds are passed on as bounds.

In the data set on IL-1β, `COCCN(C)c1nn(CC(=O)Nc2ccncn2)c(=O)c2cc3sccc3n12` [Final Cpd 3] had an IC50 of 660 nM. For the same compound, the EC50 in the data set on TNF was greater than 10000 nM.
The compound `CN(C)c1nn(CC(=O)N[C@H]2C[C@@](C)(O)C2)c(=O)c2cc3scnc3n12` [Final Cpd 9] gave a melting point of 221.7 °C. The IC50 in the data set with IL-1β was less than 120 nM. The compound also returned an EC50 in the data set on TNF greater than 10000 nM.
Turning to `CCCN(C)c1nn(CC(=O)Nc2ccncn2)c(=O)c2cc3scnc3n12` [Final Cpd 8], the melting point stood at 196.7 °C. For the same compound, in the data set on IL-1β, the 50% inhibitory concentration (IC50) was found to be 280 nM. Further, in the data set on TNF, the concentration giving a half-maximal response (EC50) was greater than 10000 nM.
Consider `CN(C)c1nn(CC(=O)Nc2ccc3nncn3n2)c(=O)c2cc3sc(Cl)cc3n12` [Final Cpd 12, N-([1,2,4]triazolo[4,3-b]pyridazin-6-yl)-2-(2-chloro-5-(dimethylamino)-8-oxothieno[2′,3′:4,5]pyrrolo[1,2-d][1,2,4]triazin-7(8H)-yl)acetamide], for which inhibition in the data set on IL-1β was half-maximal at 20 nM (IC50). The same compound gave an EC50 in the data set on TNF of 6970 nM.
For `CNc1nn(CC(=O)Nc2ccncn2)c(=O)c2cc3sccc3n12` [Final Cpd 5] the same measures were 210 nM and greater than 10000 nM.
In turn, `CCN(C)c1nn(CC(=O)Nc2ccncn2)c(=O)c2cc3sccc3n12` [Final Cpd 6] returned a half-inhibitory concentration (IC50) in the data set on IL-1β of 250 nM. In the data set on TNF, this compound registered an EC50 greater than 10000 nM.
Compound `CN(C)c1nn(CC(=O)Nc2ccncn2)c(=O)c2cc3scnc3n12` [Final Cpd 2] registered a melting point of 248.3 °C. In the data set on IL-1β, this compound showed an IC50 of less than 120 nM. In the data set on TNF, this compound came in with a 50% effective concentration (EC50) greater than 10000 nM.
For `CNc1nn(CC(=O)Nc2ccncn2)c(=O)c2cc3scnc3n12` [Final Cpd 10] the same measures were 263.5 °C, 270 nM and greater than 10000 nM.
For `CCN(C)c1nn(CC(=O)Nc2ccncn2)c(=O)c2cc3scnc3n12` [Final Cpd 1, 2-[12-[ethyl(methyl)amino]-9-oxo-5-thia-1,3,10,11-tetrazatricyclo-[6.4.0.02,6]dodeca-2(6),3,7,11-tetraen-10-yl]-N-pyrimidin-4-yl-acetamide] the same measures were 214.8 °C, 360 nM and 8560 nM.
`CN(C)c1nn(CC(=O)Nc2ccncn2)c(=O)c2cc3sccc3n12` [Final Cpd 7]: the half-maximal inhibitory concentration (IC50) in the data set with IL-1β was less than 120 nM. The compound further yielded an EC50 with TNF greater than 10000 nM.
In turn, `CN(C)c1nn(CC(=O)N[C@H]2C[C@@](C)(O)C2)c(=O)c2cc3sccc3n12` [Final Cpd 11, 2-(5-(dimethylamino)-8-oxothieno[2′,3′:4,5]pyrrolo[1,2-d][1,2,4]triazin-7(8H)-yl)-N-((1s,3s)-3-hydroxy-3-methylcyclobutyl)acetamide] showed a 50% effective concentration (EC50) in the data set on TNF greater than 10000 nM.
As for `CCCN(C)c1nn(CC(=O)Nc2ccncn2)c(=O)c2cc3sccc3n12` [Final Cpd 4], in the data set with IL-1β, the concentration for half-maximal inhibition (IC50) was found to be 320 nM. This compound showed a concentration for a half-maximal effect (EC50) in the data set on TNF greater than 10000 nM.

These data come from US20230203064A1, “TRICYCLIC COMPOUNDS AS INHIBITORS OF NLRP3” (JANSSEN PHARMACEUTICA NV, priority 2020, published 2023).
